In one experiment the target is T1, c-kit kinase (Homo sapiens, UniProt P10721).
T1 construct: The c-kit (or kinase domain thereof) is an active kinase in AlphaScreen; poly-Histidine tag (in-house protein only) (cleaved yes); host or cells: E. coli BL21(DE3)RIL, co-expressed with PTP1B
In words: c-Kit biochemical assay, AlphaScreen, 10 μM ATP. The method, boiled down: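 His-tagged c-Kit expressed in E. coli with co-expressed PTP1B (dephosphorylated), tag removed; 0.1 ng per reaction with biotinylated-peptide substrate in 50 mM HEPES pH 7.2, 5 mM MgCl2, 5 mM MnCl2, 5% DMSO, 10 μM ATP, 1 h at room temperature. Phosphorylation detected by AlphaScreen (streptavidin donor, PY20 acceptor beads); IC50 from 8-point 1:3 dilution series.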

The next experiment concerns the target T2, c-kit mutant D816V (Homo sapiens, UniProt P10721, D816V/DEL694-753).
T2 construct: residues 551-934, kinase insertion domain residues 694-753 deleted; 6x-histidine (N); made in house; host or cells: E. coli Arctic Express (DE3) RIL (Stratagene)
In words: c-Kit mutant D816V biochemical assay, AlphaScreen. The method, boiled down:
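Purified His-tagged c-Kit D816V (E. coli-expressed) assayed in 25 mM HEPES pH 7.2 with Mg/Mn, 5% DMSO and 10 μM ATP, 30 min at room temperature, 8-point 1:3 dilutions. Phosphorylation detected by AlphaScreen with streptavidin donor and PY20 acceptor beads; IC50 from signal versus concentration.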

[1] abbreviates: c-kit biochemical inhibitory activity, read-out: Biochemical activity (IC50 μM) Kit.
Where [2] appears, read: c-kit D816V biochemical inhibitory activity, read-out: Biochemical activity (IC50 μM) Kit D816V.

Where two headings read alike, the source gives them in different places.

T2 sequence (P10721 with tags, fused parts or gaps DEL694-753/D816V): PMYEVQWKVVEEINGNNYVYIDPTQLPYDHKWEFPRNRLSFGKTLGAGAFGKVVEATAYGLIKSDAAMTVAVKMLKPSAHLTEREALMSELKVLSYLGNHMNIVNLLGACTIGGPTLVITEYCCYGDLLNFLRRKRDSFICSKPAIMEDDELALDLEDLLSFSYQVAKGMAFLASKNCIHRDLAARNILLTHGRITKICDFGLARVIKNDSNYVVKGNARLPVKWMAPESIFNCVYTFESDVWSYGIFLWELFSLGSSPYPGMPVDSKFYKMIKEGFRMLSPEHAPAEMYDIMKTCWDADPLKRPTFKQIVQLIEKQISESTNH
T1 sequence (P10721 26-976): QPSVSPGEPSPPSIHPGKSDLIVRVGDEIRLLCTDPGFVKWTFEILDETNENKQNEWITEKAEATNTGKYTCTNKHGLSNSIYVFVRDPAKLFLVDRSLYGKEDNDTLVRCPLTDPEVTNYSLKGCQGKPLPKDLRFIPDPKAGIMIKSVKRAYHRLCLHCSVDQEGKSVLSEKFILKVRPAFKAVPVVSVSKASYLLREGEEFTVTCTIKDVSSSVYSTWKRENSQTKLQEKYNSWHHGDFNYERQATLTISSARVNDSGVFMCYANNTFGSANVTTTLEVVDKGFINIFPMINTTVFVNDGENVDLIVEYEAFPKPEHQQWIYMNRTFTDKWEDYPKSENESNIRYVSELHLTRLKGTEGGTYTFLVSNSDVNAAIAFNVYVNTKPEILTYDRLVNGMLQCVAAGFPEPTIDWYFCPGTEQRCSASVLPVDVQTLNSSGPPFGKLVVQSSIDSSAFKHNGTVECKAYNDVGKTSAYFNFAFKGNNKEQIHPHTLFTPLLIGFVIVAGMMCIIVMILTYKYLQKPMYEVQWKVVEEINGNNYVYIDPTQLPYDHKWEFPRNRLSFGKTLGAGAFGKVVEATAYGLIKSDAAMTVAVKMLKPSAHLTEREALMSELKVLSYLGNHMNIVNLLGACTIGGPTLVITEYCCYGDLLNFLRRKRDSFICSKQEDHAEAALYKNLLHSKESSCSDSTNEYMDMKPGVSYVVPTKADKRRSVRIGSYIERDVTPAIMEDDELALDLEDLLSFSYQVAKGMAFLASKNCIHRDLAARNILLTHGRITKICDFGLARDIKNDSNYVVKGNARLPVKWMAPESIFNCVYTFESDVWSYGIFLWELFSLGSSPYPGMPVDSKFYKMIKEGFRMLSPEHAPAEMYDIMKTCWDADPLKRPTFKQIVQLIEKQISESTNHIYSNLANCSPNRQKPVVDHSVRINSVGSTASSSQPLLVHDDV

Consider `COc1cc2c(-c3ccc(NS(C)(=O)=O)cc3F)ncnc2cc1OCCCN1CCCCC1` [P-0258, N-[3-fluoro-4-[6-methoxy-7-[3-(1-piperidyl)propoxy]quinazolin-4-yl]phenyl]methanesulfonamide], for which the half-maximal inhibitory concentration (IC50) lay within 1 to 10 µM at c-kit kinase (setting [1]) and 0.0001 to 1 µM on c-kit mutant D816V (setting [2]).

On to `COCCOc1cc2ncnc(-c3ccc(NS(=O)(=O)c4ccc(OC(F)F)cc4)cc3F)c2cc1OCCOC` [P-0259, N-[4-[6,7-bis(2-methoxyethoxy)quinazolin-4-yl]-3-fluoro-phenyl]-4-(difluoromethoxy)benzenesulfonamide], for which the IC50 lay within 1 to 10 µM on c-kit kinase (setting [1]) and 0.0001 to 1 µM at c-kit mutant D816V (setting [2]).

For the compound `COCCOc1cc2ncnc(-c3ccc(NS(=O)(=O)c4cccc(F)c4)cc3F)c2cc1OCCOC` [P-0260, N-[4-[6,7-bis(2-methoxyethoxy)quinazolin-4-yl]-3-fluoro-phenyl]-3-fluoro-benzenesulfonamide], the IC50 on c-kit kinase (setting [1]) lay within 1 to 10 µM; on c-kit mutant D816V (setting [2]), 0.0001 to 1 µM.

Turning to `COCCOc1cc2ncnc(-c3ccc(NS(=O)(=O)c4ccc(Cl)cc4)cc3F)c2cc1OCCOC` [P-0261, N-[4-[6,7-bis(2-methoxyethoxy)quinazolin-4-yl]-3-fluoro-phenyl]-4-chloro-benzenesulfonamide], the IC50 on c-kit kinase (setting [1]) and at c-kit mutant D816V (setting [2]) was 0.0001 to 1 µM each time.

As for `COCCOc1cc2ncnc(-c3ccc(NS(=O)(=O)c4ccc(OC)cc4)cc3F)c2cc1OCCOC` [P-0262, N-[4-[6,7-bis(2-methoxyethoxy)quinazolin-4-yl]-3-fluoro-phenyl]-4-methoxy-benzenesulfonamide], the IC50 at c-kit kinase (setting [1]) and at c-kit mutant D816V (setting [2]) was 0.0001 to 1 µM in each case.

With `COCCOc1cc2ncnc(-c3ccc(NS(=O)(=O)C4CC4)cc3F)c2cc1OCCOC` [P-0263, N-[4-[6,7-bis(2-methoxyethoxy)quinazolin-4-yl]-3-fluoro-phenyl]cyclopropanesulfonamide], the IC50 lay within 10 to 200 µM at c-kit kinase (setting [1]) and 0.0001 to 1 µM at c-kit mutant D816V (setting [2]).

Take `COCCOc1cc2ncnc(-c3ccc(NS(C)(=O)=O)cc3F)c2cc1OCCOC` [P-0264, N-[4-[6,7-bis(2-methoxyethoxy)quinazolin-4-yl]-3-fluoro-phenyl]methanesulfonamide]: the IC50 lay within 10 to 200 µM at c-kit kinase (setting [1]) and 0.0001 to 1 µM on c-kit mutant D816V (setting [2]).

For `O=S(=O)(Nc1ccc(-c2ncnc3cc4c(cc23)OCCO4)c(F)c1)C1CC1` [P-0265, N-[4-(7,8-dihydro-[1,4]dioxino[2,3-g]quinazolin-4-yl)-3-fluoro-phenyl]cyclopropanesulfonamide], the half-inhibitory concentration (IC50) at c-kit kinase (setting [1]) and at c-kit mutant D816V (setting [2]) was 10 to 200 µM each time.

`CS(=O)(=O)Nc1ccc(-c2ncnc3cc4c(cc23)OCCO4)c(F)c1` [P-0266, N-[4-(7,8-dihydro-[1,4]dioxino[2,3-g]quinazolin-4-yl)-3-fluoro-phenyl]methanesulfonamide]: the IC50 on c-kit kinase (setting [1]) and at c-kit mutant D816V (setting [2]) was 1 to 10 µM throughout.

Take `COc1cc2ncnc(-c3ccc(N)cc3F)c2cc1OC` [P-0267, 4-(6,7-dimethoxyquinazolin-4-yl)-3-fluoro-aniline]: the values for the IC50 at c-kit kinase (setting [1]) and on c-kit mutant D816V (setting [2]) were 10 to 200 µM and 0.0001 to 1 µM, respectively.

Consider `COc1cc2ncnc(-c3ccc(NS(=O)(=O)c4ccc(Cl)cc4)cc3F)c2cc1OC` [P-0268, 4-chloro-N-[4-(6,7-dimethoxyquinazolin-4-yl)-3-fluoro-phenyl]benzenesulfonamide], for which the IC50 on c-kit kinase (setting [1]) was in the range of 1 to 10 µM; at c-kit mutant D816V (setting [2]) it was 0.0001 to 1 µM.

As for `CCCS(=O)(=O)Nc1ccc(-c2ncnc3cc(OC)c(OC)cc23)c(F)c1` [P-0269, N-[4-(6,7-dimethoxyquinazolin-4-yl)-3-fluoro-phenyl]propane-1-sulfonamide], the half-inhibitory concentration (IC50) was in the range of 10 to 200 µM on c-kit kinase (setting [1]) and 0.0001 to 1 µM at c-kit mutant D816V (setting [2]).

In the case of `COc1cc2ncnc(-c3ccc(NS(=O)(=O)C4CC4)cc3F)c2cc1OC` [P-0270, N-[4-(6,7-dimethoxyquinazolin-4-yl)-3-fluoro-phenyl]cyclopropanesulfonamide], the half-maximal inhibitory concentration (IC50) was in the range of 10 to 200 µM at c-kit kinase (setting [1]) and 0.0001 to 1 µM at c-kit mutant D816V (setting [2]).

For `COc1cc2ncnc(-c3ccc(NS(C)(=O)=O)cc3F)c2cc1OC` [P-0271, N-[4-(6,7-dimethoxyquinazolin-4-yl)-3-fluoro-phenyl]methanesulfonamide], the IC50 on c-kit kinase (setting [1]) is 1 to 10 µM; at c-kit mutant D816V (setting [2]), 0.0001 to 1 µM.

In the case of `Cc1ccc(-c2cc3c(C4=CCC(NS(=O)(=O)c5ccc(OC(F)(F)F)cc5)CC4)ncnc3[nH]2)cn1` (stereo not drawn) [P-0281, N-[4-[6-(6-methyl-3-pyridyl)-7H-pyrrolo[2,3-d]pyrimidin-4-yl]cyclohex-3-en-1-yl]-4-(trifluoromethoxy)benzenesulfonamide], the IC50 at c-kit kinase (setting [1]) lay in the range of 10 to 200 µM; at c-kit mutant D816V (setting [2]) it was 0.0001 to 1 µM.

For `CCCc1ccc(S(=O)(=O)Nc2ccc(-c3ncnc4[nH]c(C)cc34)cc2)cc1` [P-0282, N-[4-(6-methyl-7H-pyrrolo[2,3-d]pyrimidin-4-yl)phenyl]-4-propyl-benzenesulfonamide], the IC50 on c-kit kinase (setting [1]) lay in the range of 1 to 10 µM; on c-kit mutant D816V (setting [2]) it was 0.0001 to 1 µM.

`Cc1cccc(S(=O)(=O)Nc2ccc(-c3ncnc4[nH]c(C)cc34)cc2)c1` [P-0283, 3-methyl-N-[4-(6-methyl-7H-pyrrolo[2,3-d]pyrimidin-4-yl)phenyl]benzenesulfonamide]: the concentration for half-maximal inhibition (IC50) is 10 to 200 µM on c-kit kinase (setting [1]) and 1 to 10 µM on c-kit mutant D816V (setting [2]).

Consider `Cc1cc2c(-c3ccc(NS(=O)(=O)c4cccc(OC(F)(F)F)c4)cc3)ncnc2[nH]1` [P-0284, N-[4-(6-methyl-7H-pyrrolo[2,3-d]pyrimidin-4-yl)phenyl]-3-(trifluoromethoxy)benzenesulfonamide], for which the 50% inhibitory concentration (IC50) at c-kit kinase (setting [1]) is 10 to 200 µM; at c-kit mutant D816V (setting [2]), 1 to 10 µM.

Turning to `Cn1cc(-c2cc3c(C4=CCC(NS(=O)(=O)c5ccc(OC(F)(F)F)cc5)CC4)ncnc3[nH]2)cn1` (stereo not drawn) [P-0285, N-[4-[6-(1-methylpyrazol-4-yl)-7H-pyrrolo[2,3-d]pyrimidin-4-yl]cyclohex-3-en-1-yl]-4-(trifluoromethoxy)benzenesulfonamide], the half-maximal inhibitory concentration (IC50) lay within 1 to 10 µM at c-kit kinase (setting [1]) and 0.0001 to 1 µM at c-kit mutant D816V (setting [2]).

`Cc1ccc(S(=O)(=O)Nc2ccc(-c3ncnc4[nH]c(C)cc34)c(F)c2)cn1` [P-0286, N-[3-fluoro-4-(6-methyl-7H-pyrrolo[2,3-d]pyrimidin-4-yl)phenyl]-6-methyl-pyridine-3-sulfonamide]: the concentration for half-maximal inhibition (IC50) is 1 to 10 µM on c-kit kinase (setting [1]) and 0.0001 to 1 µM on c-kit mutant D816V (setting [2]).

With `CCCCc1ccc(S(=O)(=O)Nc2ccc(-c3ncnc4[nH]c(C)cc34)cc2)cc1` [P-0287, 4-butyl-N-[4-(6-methyl-7H-pyrrolo[2,3-d]pyrimidin-4-yl)phenyl]benzenesulfonamide], the results for the IC50 on c-kit kinase (setting [1]) and on c-kit mutant D816V (setting [2]) were 10 to 200 µM and 1 to 10 µM, respectively.

For the compound `CCCCS(=O)(=O)Nc1ccc(-c2ncnc3[nH]c(C)cc23)cc1` [P-0288, N-[4-(6-methyl-7H-pyrrolo[2,3-d]pyrimidin-4-yl)phenyl]butane-1-sulfonamide], the concentration for half-maximal inhibition (IC50) was 10 to 200 µM on c-kit kinase and 1 to 10 µM against c-kit mutant D816V (Biochemical activity (IC50 μM) Kit D816V).

As for `CCCS(=O)(=O)Nc1ccc(-c2ncnc3[nH]c(C)cc23)cc1` [P-0289, N-[4-(6-methyl-7H-pyrrolo[2,3-d]pyrimidin-4-yl)phenyl]propane-1-sulfonamide], the IC50 on c-kit kinase (setting [1]) fell in the range of 10 to 200 µM; on c-kit mutant D816V (setting [2]) it was 0.0001 to 1 µM.

Consider `O=S(=O)(Nc1ccc(-c2ncnc3[nH]c(C4CCCC4)cc23)cc1)c1ccc(F)cc1` [P-0290, N-[4-(6-cyclopentyl-7H-pyrrolo[2,3-d]pyrimidin-4-yl)phenyl]-4-fluoro-benzenesulfonamide], for which the values for the IC50 at c-kit kinase (setting [1]) and at c-kit mutant D816V (setting [2]) were 1 to 10 µM and 0.0001 to 1 µM, respectively.

On to `Cc1cc2c(-c3ccc(NS(=O)(=O)c4ccc(C)s4)cc3F)ncnc2[nH]1` [P-0291, N-[3-fluoro-4-(6-methyl-7H-pyrrolo[2,3-d]pyrimidin-4-yl)phenyl]-5-methyl-thiophene-2-sulfonamide], for which the concentration for half-maximal inhibition (IC50) lay in the range of 1 to 10 µM at c-kit kinase (setting [1]) and 0.0001 to 1 µM on c-kit mutant D816V (setting [2]).

Take `CCc1ccc(S(=O)(=O)Nc2ccc(-c3ncnc4[nH]c(C)cc34)c(F)c2)cc1` [P-0292, 4-ethyl-N-[3-fluoro-4-(6-methyl-7H-pyrrolo[2,3-d]pyrimidin-4-yl)phenyl]benzenesulfonamide]: the IC50 on c-kit kinase (setting [1]) is 1 to 10 µM; on c-kit mutant D816V (setting [2]), 0.0001 to 1 µM.

`Cc1ccc(S(=O)(=O)Nc2ccc(-c3ncnc4[nH]c(C)cc34)c(F)c2)cc1` [P-0293, N-[3-fluoro-4-(6-methyl-7H-pyrrolo[2,3-d]pyrimidin-4-yl)phenyl]-4-methyl-benzenesulfonamide]: the IC50 was in the range of 1 to 10 µM at c-kit kinase (setting [1]) and 0.0001 to 1 µM on c-kit mutant D816V (setting [2]).

Regarding `Cc1cc2c(-c3ccc(NS(=O)(=O)c4ccc5c(c4)OCO5)cc3)ncnc2[nH]1` [P-0294, N-[4-(6-methyl-7H-pyrrolo[2,3-d]pyrimidin-4-yl)phenyl]-1,3-benzodioxole-5-sulfonamide], the concentration for half-maximal inhibition (IC50) fell in the range of 10 to 200 µM at c-kit kinase (setting [1]) and 0.0001 to 1 µM on c-kit mutant D816V (setting [2]).

Regarding `CC1(C)C=C(c2cc3c(-c4ccc(NS(=O)(=O)c5ccc(F)cc5)cc4)ncnc3[nH]2)CC(C)(C)N1` [P-0295, 4-fluoro-N-[4-[6-(2,2,6,6-tetramethyl-1,3-dihydropyridin-4-yl)-7H-pyrrolo[2,3-d]pyrimidin-4-yl]phenyl]benzenesulfonamide], the IC50 on c-kit kinase (setting [1]) lay in the range of 1 to 10 µM; at c-kit mutant D816V (setting [2]) it was 0.0001 to 1 µM.

Turning to `O=S(=O)(Nc1ccc(-c2ncnc3[nH]c(C4=CCCC4)cc23)cc1)c1ccc(F)cc1` [P-0296, N-[4-[6-(cyclopenten-1-yl)-7H-pyrrolo[2,3-d]pyrimidin-4-yl]phenyl]-4-fluoro-benzenesulfonamide], the IC50 was 1 to 10 µM at c-kit kinase (setting [1]) and 0.0001 to 1 µM on c-kit mutant D816V (setting [2]).

The values are drawn from patent US10227357B2, “Compounds and methods for kinase modulation, and indications therefor” (Plexxikon Inc., priority 2012, dated 2019).
